# Assay results published in US20250277059A1, “ANTIBODY USED TO TREAT CORONAVIRUS INFECTION” (priority 2022, published 2025).
# Tested on: pseudo-typed virus having S protein of SARS-COV-2 (WT) derived from Wuhan
# Format: cell-based
structure (smiles),measurement,value
"N=C(N)c1ccc2cc(OC(=O)c3ccc(N=C(N)N)cc3)ccc2c1 [Nafamostat, nafamostat]",infection inhibiting effect on WT-type virus,exhibited infection inhibiting effects
